Assay results as given in patent US20240103011A1, “LIQUID BIOPSY YIELD ENHANCEMENT” (priority 2021, published 2024).
Where two headings read alike, the source gives them in different places.

Columns and labels:
[1] = test system: HSC; conditions: in vivo; cited from earlier work
[2] = test system: T cell lymphoma; conditions: T cell lymphoma/Partial remission
Protocol: (§1) A sample from the subjects is collected at the time of diagnosis (“baseline sample”) and analyzed for tumor mutational burden (TMB) and microsatellite instability (MSI). Subjects are then administered a single dose of plerixafor (10-20 mg), a single dose of motixafortide (0.5-2 mg/kg), a single dose of MGTA-145 (0.0075-0.3 mg/kg), or a single dose of MGTA-145 (0.0075-0.3 mg/kg) in combination with a single dose of plerixafor (0.24 mg/kg), and blood sample collected 1-72 hours later. This blood sample (“LBYE+ sample”) is analyzed for TMB and MSI.
(§2) The change/difference of biomarker detected in the LBYE+ sample and the baseline sample is used by a clinician to predict treatment response and/or make treatment decision.

[3] = test system: Colon Cancer; conditions: Colon Cancer/Relapse
Protocol: as §1, §2

For `c1cc(CN2CCCNCCNCCCNCC2)ccc1CN1CCCNCCNCCCNCC1` [Plerixafor, 1-{[4-(1,4,8,11-tetrazacyclotetradec-1-ylmethyl)phenyl]methyl}-1,4,8,11-tetrazacyclotetradecane], the HSC mobilization [1] is given as “rapidly mobilize HSC within hours”, the “VAF, LBYE+ Sample Status” value ([2]; TET2, baseline 23.80%) is given as 20.20% and the “Genomic variants, LBYE+ Sample Status” value ([2]; after intervening agent, baseline TET2) is given as “TET2”. The “TMB, LBYE+ Sample Status” value ([2]; baseline 0.4 m/MB) was 0.5 m/MB, the “MSI, LBYE+ Sample Status” value ([2]; baseline Stable) was “Stable” and the “VAF, LBYE+ Sample Status” value ([3]; APC, baseline 7.80%) was 7.30%. For the same compound, the “VAF, LBYE+ Sample Status” value ([3]; TP53, baseline 6.30%) was 6.30%, the “TMB, LBYE+ Sample Status” value ([3]; baseline 0.5 m/MB) was 1.1 m/MB and the “MSI, LBYE+ Sample Status” value ([3]; baseline Stable) was “Stable”.
